# Reference: ChEMBL document CHEMBL1201862, “PubChem BioAssay data set” (2004)
#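 Grown in 96-well plates, cells were treated for 48 hours with each compound at five concentrations. Insufficient inhibition: endpoint recorded as highest concentration tested. At the GI50, growth is halved.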 Active and inactive are the calls of the source. Cut-off read from the data, not from the text of the source: active = GI50 up to about 1.1 µM and inactive = higher.
# Key:
# Experiment in all cases: inhibition of tumour cell growth, NCI panel, 48 h
# NCI-H460 = test system: NCI-H460
# HT-29 = test system: HT-29
# IGROV-1 = test system: IGROV-1
# EKVX = test system: EKVX
# NCI-H522 = test system: NCI-H522
# RPMI-8226 = test system: RPMI-8226
# DU-145 = test system: DU-145
# OVCAR-8 = test system: OVCAR-8
# MDA-MB-435 = test system: MDA-MB-435
# NCI-H23 = test system: NCI-H23
# SNB-19 = test system: SNB-19
# SN12C = test system: SN12C
# HCC 2998 = test system: HCC 2998
# Hs-578T = test system: Hs-578T
# NCI-H226 = test system: NCI-H226
# RXF 393 = test system: RXF 393
# UACC-62 = test system: UACC-62
# TK-10 = test system: TK-10
Structure (SMILES),GI50 (NCI-H460),GI50 (HT-29),GI50 (IGROV-1),GI50 (EKVX),GI50 (NCI-H522),GI50 (RPMI-8226),GI50 (DU-145),GI50 (OVCAR-8),GI50 (MDA-MB-435),GI50 (NCI-H23),GI50 (SNB-19),GI50 (SN12C),GI50 (HCC 2998),GI50 (Hs-578T),GI50 (NCI-H226),GI50 (RXF 393),GI50 (UACC-62),GI50 (TK-10)
O=C(O)c1ccc(CI)cc1,15.6 µM (inactive),15.1 µM (inactive),21.1 µM (inactive),19.5 µM (inactive),3.9 µM (inactive),20.8 µM (inactive),18.4 µM (inactive),21.9 µM (inactive),17.4 µM (inactive),12.7 µM (inactive),13.8 µM (inactive),17 µM (inactive),18 µM (inactive),41 µM (inactive),22.2 µM (inactive),17.7 µM (inactive),10.8 µM (inactive),–
Cc1ccc(/C=C2\CN(C)CC3C2=NN(c2ccccc2)C3c2ccc(C)cc2)cc1 (stereo unspecified),> 100 µM (inactive),> 100 µM (inactive),> 100 µM (inactive),76.7 µM (inactive),> 100 µM (inactive),–,> 100 µM (inactive),> 100 µM (inactive),> 100 µM (inactive),> 100 µM (inactive),74.6 µM (inactive),> 100 µM (inactive),> 100 µM (inactive),> 100 µM (inactive),> 100 µM (inactive),34.4 µM (inactive),> 100 µM (inactive),> 100 µM (inactive)
C=C1c2nc3ccccc3n2C=C(c2ccc(Cl)cc2)N1c1ccc(OCCN2CCOCC2)cc1,5.47 µM (inactive),12.2 µM (inactive),14.5 µM (inactive),–,–,2.91 µM (inactive),49.8 µM (inactive),–,12.6 µM (inactive),28.2 µM (inactive),> 100 µM (inactive),> 100 µM (inactive),37.9 µM (inactive),19.5 µM (inactive),> 100 µM (inactive),32.7 µM (inactive),19.9 µM (inactive),35.9 µM (inactive)
Cc1nnc(CC#N)n1NC(=O)CC#N,> 100 µM (inactive),> 100 µM (inactive),> 100 µM (inactive),> 100 µM (inactive),> 100 µM (inactive),–,> 100 µM (inactive),> 100 µM (inactive),> 100 µM (inactive),> 100 µM (inactive),> 100 µM (inactive),> 100 µM (inactive),> 100 µM (inactive),> 100 µM (inactive),–,> 100 µM (inactive),> 100 µM (inactive),> 100 µM (inactive)
O=C(O)CN1C(=O)c2ccc(NC(=O)C(=O)O)cc2S1(=O)=O,> 100 µM (inactive),–,> 100 µM (inactive),> 100 µM (inactive),> 100 µM (inactive),> 100 µM (inactive),> 100 µM (inactive),–,> 100 µM (inactive),> 100 µM (inactive),> 100 µM (inactive),> 100 µM (inactive),> 100 µM (inactive),> 100 µM (inactive),> 100 µM (inactive),> 100 µM (inactive),> 100 µM (inactive),> 100 µM (inactive)
c1c[nH]c(CN2CCOCC2)n1,> 100 µM (inactive),> 100 µM (inactive),> 100 µM (inactive),> 100 µM (inactive),> 100 µM (inactive),> 100 µM (inactive),> 100 µM (inactive),> 100 µM (inactive),> 100 µM (inactive),> 100 µM (inactive),> 100 µM (inactive),> 100 µM (inactive),–,> 100 µM (inactive),> 100 µM (inactive),> 100 µM (inactive),> 100 µM (inactive),> 100 µM (inactive)
C[N+](C)(C)C1(C(=O)[O-])CC1,> 100 µM (inactive),> 100 µM (inactive),> 100 µM (inactive),> 100 µM (inactive),> 100 µM (inactive),> 100 µM (inactive),> 100 µM (inactive),> 100 µM (inactive),> 100 µM (inactive),> 100 µM (inactive),> 100 µM (inactive),> 100 µM (inactive),> 100 µM (inactive),> 100 µM (inactive),> 100 µM (inactive),> 100 µM (inactive),–,> 100 µM (inactive)
Cc1cc(O)c2c3c(ccc2c1)C(=O)c1c(O)cccc1C3=O [TETRANGULOL],0.653 µM (active),8.15 µM (inactive),2.21 µM (inactive),7.14 µM (inactive),0.957 µM (active),> 28.5 µM (inactive),4.56 µM (inactive),9.68 µM (inactive),0.179 µM (active),3.98 µM (inactive),19.9 µM (inactive),72.6 µM (inactive),5.15 µM (inactive),> 40.9 µM (inactive),–,> 100 µM (inactive),1.55 µM (inactive),54.5 µM (inactive)
O=C1CS(=O)(=O)C(c2cccc(Oc3ccccc3)c2)N1C1CC1 (stereo unspecified),43.4 µM (inactive),32.7 µM (inactive),–,29 µM (inactive),38.7 µM (inactive),–,63.2 µM (inactive),38.5 µM (inactive),26.2 µM (inactive),28 µM (inactive),50.1 µM (inactive),46.8 µM (inactive),44 µM (inactive),> 100 µM (inactive),26.9 µM (inactive),22 µM (inactive),31.6 µM (inactive),44.7 µM (inactive)
O=c1[nH]nc(Cc2ccccc2)n1N=C1CCCCC1,> 100 µM (inactive),58.7 µM (inactive),> 100 µM (inactive),< 0.01 µM (active),> 100 µM (inactive),> 100 µM (inactive),> 100 µM (inactive),> 100 µM (inactive),> 100 µM (inactive),> 100 µM (inactive),> 100 µM (inactive),> 100 µM (inactive),–,> 100 µM (inactive),> 100 µM (inactive),> 100 µM (inactive),> 100 µM (inactive),> 100 µM (inactive)
C#CC(=O)OCC#CCOC(=O)C#C,> 100 µM (inactive),23 µM (inactive),–,14.2 µM (inactive),3.23 µM (inactive),15.1 µM (inactive),26.8 µM (inactive),30.8 µM (inactive),28.8 µM (inactive),23.3 µM (inactive),> 100 µM (inactive),28.5 µM (inactive),19.6 µM (inactive),27.8 µM (inactive),19 µM (inactive),19.1 µM (inactive),22.7 µM (inactive),16.3 µM (inactive)
CCCCOCOc1ccccc1P1(=O)COc2ccccc2OC1,58.3 µM (inactive),> 100 µM (inactive),> 100 µM (inactive),> 100 µM (inactive),–,87.9 µM (inactive),> 100 µM (inactive),–,> 100 µM (inactive),> 100 µM (inactive),> 100 µM (inactive),> 100 µM (inactive),> 100 µM (inactive),54 µM (inactive),–,37.8 µM (inactive),66.2 µM (inactive),20.8 µM (inactive)
CCOC(=O)C1=NN(c2ccc(C)cc2)C2(c3ccccc3)C=C(c3ccccc3)N(C)CCN12 (stereo unspecified),–,> 100 µM (inactive),> 100 µM (inactive),> 100 µM (inactive),> 100 µM (inactive),29 µM (inactive),> 100 µM (inactive),> 100 µM (inactive),> 100 µM (inactive),> 100 µM (inactive),> 100 µM (inactive),> 100 µM (inactive),82.4 µM (inactive),> 100 µM (inactive),> 100 µM (inactive),> 100 µM (inactive),> 100 µM (inactive),> 100 µM (inactive)
Cc1ccc(-n2cc(-c3ccc(Cl)cc3)c3c(NNC(=S)NCc4ccccc4)ncnc32)cc1,2.07 µM (inactive),14.3 µM (inactive),12.2 µM (inactive),13.1 µM (inactive),4.53 µM (inactive),9.29 µM (inactive),24.9 µM (inactive),6.22 µM (inactive),8.02 µM (inactive),13.5 µM (inactive),23.3 µM (inactive),7.21 µM (inactive),–,60.7 µM (inactive),92.7 µM (inactive),14.3 µM (inactive),18.1 µM (inactive),11.1 µM (inactive)
S=C=Nc1ccc(CSc2nc3ccccc3[nH]2)cc1,20.8 µM (inactive),18.4 µM (inactive),18.2 µM (inactive),20 µM (inactive),4.25 µM (inactive),23.2 µM (inactive),16.1 µM (inactive),17.8 µM (inactive),17.5 µM (inactive),17.6 µM (inactive),25.9 µM (inactive),17.5 µM (inactive),18.1 µM (inactive),41.6 µM (inactive),–,16.4 µM (inactive),15.8 µM (inactive),20.1 µM (inactive)
CCc1c(O)nc(Nc2nc3ccccc3[nH]2)[nH]c1=O,> 100 µM (inactive),> 100 µM (inactive),> 100 µM (inactive),–,> 100 µM (inactive),–,> 100 µM (inactive),> 100 µM (inactive),> 100 µM (inactive),> 100 µM (inactive),> 100 µM (inactive),> 100 µM (inactive),> 100 µM (inactive),> 100 µM (inactive),> 100 µM (inactive),> 100 µM (inactive),> 100 µM (inactive),> 100 µM (inactive)
COCOc1cc(OC)ccc1C/C=N/O,> 100 µM (inactive),> 100 µM (inactive),> 100 µM (inactive),> 100 µM (inactive),> 100 µM (inactive),–,> 100 µM (inactive),> 100 µM (inactive),> 100 µM (inactive),> 100 µM (inactive),> 100 µM (inactive),> 100 µM (inactive),> 100 µM (inactive),> 100 µM (inactive),> 100 µM (inactive),> 100 µM (inactive),> 100 µM (inactive),> 100 µM (inactive)
